Reference: patent US5470858A, “Derivatives of (hetero)aromatic ethers and thioethers having antihyperlipidemic activity, process for their preparation and pharmaceutical compositions containing them” (Pierrel SpA, priority 1991, dated 1995)
Where two headings read alike, the source gives them in different places.

Experiments:
Format in all cases: in vivo
[1] = system: hyperlipaemic SD male rats; assay: Hypolipemizing activity, 5 days experimental model, modified Nath diet; conditions: rat, oral; for change in vivo at 100 mg/kg/day / change in vivo at 300 mg/kg/day: 120 h; for Hepatic index (percent variation vs hyperlipaemic controls): index = (Liver weight/body weight) × 100
Method: (§1) The hypolipemizing activity of the compounds of the present invention has been evaluated in the rat using SD male animals (Charles River) of an initial weight of 150 g, housed in controlled environment at a temperature of 21°±1° C., relative humidity 60% and a 12 hours light/dark cycle.
Experimental models have been used in which the animals are rendered hiperlipaemic by "ad libitum" food administration with a modified Nath diet (Atherosclerosis 30, 1978, pag. 45-46) having the following composition: […]
hydrogenated coconut oil
In the first model the animals have been fed with this diet for 5 consecutive days, during which they received the pharmacological treatment once a day by oral route and were sacrificed 2 hours after the last administration.
At the time of the sacrifice the blood was removed, for the lipid determination, as well as the liver the weight of which was the index of a possible hepatomegaly.
By this experimental model the concentration of the serum lipids attained very high values which, in the control group, was four times the normal values for the total cholesterol and the triglycerides.
(§2) The determination of the triglycerides, of the total cholesterol and of the cholesterol associated to the HDL has been effected by means of a commercial enzymatic kit. The concentration of the cholesterol associated to VLDL+LDL has been determined by difference between total cholesterol and HDL.
The results obtained in the experimental model of the 5 days duration for some compounds representative of the invention are reported in the following table 1. The data are expressed as percent variation with respect to the hyperlipaemic controls to which carboxymethylcellulose as 0.5% in water at the dose of 10 ml/kg/day by oral route was administered. The same vehicle was used for the suspension of the tested compounds at the doses of 100 and 300 mg/kg/day by oral route.

[2] = system: hyperlipaemic SD male rats; assay: Hypolipemizing activity, 15 days experimental model, modified diet; conditions: rat, oral; for Cholesterol VLDL + LDL (percent variation vs hyperlipaemic controls): by difference between total and HDL; for Hepatic index (percent variation vs hyperlipaemic controls): index = (Liver weight/body weight) × 100
Method: as §1
Experimental models have been used in which the animals are rendered hiperlipaemic by "ad libitum" food administration with a modified Nath diet (Atherosclerosis 30, 1978, pag. 45-46) having the following composition:
In the second model a diet was used which was modified with respect to the former one by the following parameters: […]
The animals were fasted with this diet for 15 days consecutively, during which they received the pharmacological treatment once a day by oral route and were sacrificed 24 hours after the last administration. At the sacrifice time the blood was removed for the lipid determination and the liver was removed as well to be weighed and used for the evaluation of the catalase enzyme as the index of the peroxysomes proliferation and thus of hepatotoxicity.
This experimental model has been used only for the molecules which in the first model were found more promising, and has permitted to get values of the serum lipids from 2 to 3 times higher than the normal values both for the total cholesterol and for the triglycerides.
This experimental model was used to:
a) evaluate the effectiveness on a less marked hyperlipoproteinaemy, and
b) assess mainly at the hepatic level the tolerability of the compounds during a more extended treatment.
as §2
On the basis of the indications provided by this screening the most interesting compounds have been evaluated by the 15 days experimental model which permits both the evaluation of the effectiveness in the case of a hyperlipaemia less marked and more constant, and the tolerability control of the compounds during a longer term treatment.
In this case too the results (reported in the following table 2) are expressed as the percent variation with respect to the hyperlipaemic controls to which carboxymethylcellulose as 0.5% in water was administered by oral route at the dose of 10 ml/kg/day. The same vehicle was used for the suspension of the compounds being tested, administered at the doses; of 50 and 100 mg/kg/day by oral route.

catalase enzyme = assay: Hepatic tolerability, 15 days at high dose: catalase enzyme activity in liver (index of peroxysomes proliferation); conditions: rat liver, oral, 15 days, 300 mg/kg/day; absolute values; solvent 539,8
Method: (§3) The hypolipemizing activity of the compounds of the present invention has been evaluated in the rat using SD male animals (Charles River) of an initial weight of 150 g, housed in controlled environment at a temperature of 21°±1° C., relative humidity 60% and a 12 hours light/dark cycle. The animals were fasted with this diet for 15 days consecutively, during which they received the pharmacological treatment once a day by oral route and were sacrificed 24 hours after the last administration. At the sacrifice time the blood was removed for the lipid determination and the liver was removed as well to be weighed and used for the evaluation of the catalase enzyme as the index of the peroxysomes proliferation and thus of hepatotoxicity. In order to evaluate the hepatic tolerability of the compounds of interest they have been administered for 15 days at a high dose (300 mg/kg/day) according to the same conditions of the previous experiment.24 hours after the last treatment the animals have been sacrificed, and the liver has been removed and stored at -20° C. up to the time of dosing the activity of the catalase enzyme (Methods of enzymatic analysis, vol.2, pag. 673, 1974 edit. H. U. Bergmeyer, Verlag Chemie International).

liver = assay: Hepatic tolerability, 15 days at high dose: hepatic index; conditions: rat, oral, 15 days, 300 mg/kg/day; absolute values; solvent 5,4
Method: as §3

[3] = 100 mg/kg/day, by difference between total and HDL, read-out: Cholesterol VLDL + LDL (percent variation vs hyperlipaemic controls)
[4] = 100 mg/kg/day, read-out: Cholesterol HDL (percent variation vs hyperlipaemic controls)
[5] = 100 mg/kg/day, read-out: Total Cholesterol (percent variation vs hyperlipaemic controls)
[6] = 100 mg/kg/day, read-out: Triglycerides (percent variation vs hyperlipaemic controls)
[7] = 300 mg/kg/day, by difference between total and HDL, read-out: Cholesterol VLDL + LDL (percent variation vs hyperlipaemic controls)
[8] = 300 mg/kg/day, read-out: Cholesterol HDL (percent variation vs hyperlipaemic controls)
[9] = 300 mg/kg/day, read-out: Total Cholesterol (percent variation vs hyperlipaemic controls)
[10] = 300 mg/kg/day, read-out: Triglycerides (percent variation vs hyperlipaemic controls)

## CC(C)COC(=O)c1ccc(OCC(=O)CSc2nc3ccccc3s2)cc1 [Example 2, 2-[3-[(p-isobutyloxycarbonyl)phenoxy]-2-oxo-propylthio]-benzothiazole]
[1]; [3]
  change in vivo at 100 mg/kg/day: -14.7%
[1]; [4]
  change in vivo at 100 mg/kg/day: 10.4%
[1]; [5]
  change in vivo at 100 mg/kg/day: -13.2%
[1]; [6]
  change in vivo at 100 mg/kg/day: -22.1%
[1]; [7]
  change in vivo at 300 mg/kg/day: -21.8%
[1]; [8]
  change in vivo at 300 mg/kg/day: 13.9%
[1]; [9]
  change in vivo at 300 mg/kg/day: -19.5%
[1]; [10]
  change in vivo at 300 mg/kg/day: -32.5%
[1]; 100 mg/kg/day
  Hepatic index (percent variation vs hyperlipaemic controls): -6,5%
[1]; 300 mg/kg/day
  Hepatic index (percent variation vs hyperlipaemic controls): -1,6%
[2]; 50 mg/kg/day
  Cholesterol HDL (percent variation vs hyperlipaemic controls): -24,5%
  Total Cholesterol (percent variation vs hyperlipaemic controls): -13,1%
  Triglycerides (percent variation vs hyperlipaemic controls): -0,2%
  Cholesterol VLDL + LDL (percent variation vs hyperlipaemic controls): -12,0%
  Hepatic index (percent variation vs hyperlipaemic controls): +3,5%
[2]; 100 mg/kg/day
  Cholesterol HDL (percent variation vs hyperlipaemic controls): -0,4%
  Total Cholesterol (percent variation vs hyperlipaemic controls): -12,9%
  Triglycerides (percent variation vs hyperlipaemic controls): -18,7%
  Cholesterol VLDL + LDL (percent variation vs hyperlipaemic controls): -14,0%
  Hepatic index (percent variation vs hyperlipaemic controls): -4,5%
Catalase enzyme
  Catalase enzyme activity: 603,0 umoli/min/mg proteins
liver
  Hepatic index (Liver weight/body weight) × 100: 6,0

## CC(C)COC(=O)c1ccc(OCC(O)CSc2nc3ccccc3s2)cc1 (stereo not drawn) [Example 6, 2-[3-[(p-isobutyloxycarbonyl)-phenoxy]-2-hydroxy-propylthio]-benzothiazole]
[1]; [3]
  change in vivo at 100 mg/kg/day: -18.8%
[1]; [4]
  change in vivo at 100 mg/kg/day: 7.7%
[1]; [5]
  change in vivo at 100 mg/kg/day: -17%
[1]; [6]
  change in vivo at 100 mg/kg/day: -15.6%
[1]; [7]
  change in vivo at 300 mg/kg/day: -27.9%
[1]; [9]
  change in vivo at 300 mg/kg/day: -24.9%
[1]; [10]
  change in vivo at 300 mg/kg/day: -23.4%
[1]; 100 mg/kg/day
  Hepatic index (percent variation vs hyperlipaemic controls): +2,2%
[1]; 300 mg/kg/day
  Hepatic index (percent variation vs hyperlipaemic controls): +0,4%
[2]; 50 mg/kg/day
  Cholesterol HDL (percent variation vs hyperlipaemic controls): +1,0%
  Total Cholesterol (percent variation vs hyperlipaemic controls): -16,1%
  Triglycerides (percent variation vs hyperlipaemic controls): -18,2%
  Cholesterol VLDL + LDL (percent variation vs hyperlipaemic controls): -19,0%
  Hepatic index (percent variation vs hyperlipaemic controls): -1,7%
[2]; 100 mg/kg/day
  Cholesterol HDL (percent variation vs hyperlipaemic controls): +4,3%
  Total Cholesterol (percent variation vs hyperlipaemic controls): -19,0%
  Triglycerides (percent variation vs hyperlipaemic controls): -49,1%
  Cholesterol VLDL + LDL (percent variation vs hyperlipaemic controls): -21,7%
  Hepatic index (percent variation vs hyperlipaemic controls): -4,1%
Catalase enzyme
  Catalase enzyme activity: 504,6 umoli/min/mg proteins
liver
  Hepatic index (Liver weight/body weight) × 100: 5,9

## CC(C)COC(=O)c1ccc(OCC(O)CSc2nc3ccccc3o2)cc1 (stereo not drawn) [Example 11]
[1]; [3]
  change in vivo at 100 mg/kg/day: -22.8%
[1]; [4]
  change in vivo at 100 mg/kg/day: 9.5%
[1]; [5]
  change in vivo at 100 mg/kg/day: -21.4%
[1]; [6]
  change in vivo at 100 mg/kg/day: -21.6%
[1]; [7]
  change in vivo at 300 mg/kg/day: -39.7%
[1]; [8]
  change in vivo at 300 mg/kg/day: 14.9%
[1]; [9]
  change in vivo at 300 mg/kg/day: -37.1%
[1]; [10]
  change in vivo at 300 mg/kg/day: -30.3%
[1]; 100 mg/kg/day
  Hepatic index (percent variation vs hyperlipaemic controls): -2,3%
[1]; 300 mg/kg/day
  Hepatic index (percent variation vs hyperlipaemic controls): -1,7%
[2]; 50 mg/kg/day
  Cholesterol HDL (percent variation vs hyperlipaemic controls): -9,9%
  Total Cholesterol (percent variation vs hyperlipaemic controls): -36,6%
  Triglycerides (percent variation vs hyperlipaemic controls): -48,5%
  Cholesterol VLDL + LDL (percent variation vs hyperlipaemic controls): -39,7%
  Hepatic index (percent variation vs hyperlipaemic controls): +0,2%
[2]; 100 mg/kg/day
  Cholesterol HDL (percent variation vs hyperlipaemic controls): +16,1%
  Total Cholesterol (percent variation vs hyperlipaemic controls): -34,4%
  Triglycerides (percent variation vs hyperlipaemic controls): -46,8%
  Cholesterol VLDL + LDL (percent variation vs hyperlipaemic controls): -40,2%
  Hepatic index (percent variation vs hyperlipaemic controls): -3,1%
Catalase enzyme
  Catalase enzyme activity: 444,7 umoli/min/mg proteins
liver
  Hepatic index (Liver weight/body weight) × 100: 5,8

## CC(C)COC(=O)c1ccc(OCC(=O)CSc2nc3c(N)ncnc3n2[C@@H]2O[C@H](CO)[C@@H](O)[C@H]2O)cc1 [Example 28]
[1]; [3]
  change in vivo at 100 mg/kg/day: -15.1%
[1]; [4]
  change in vivo at 100 mg/kg/day: 5.7%
[1]; [5]
  change in vivo at 100 mg/kg/day: -14%
[1]; [6]
  change in vivo at 100 mg/kg/day: -16.3%
[1]; [7]
  change in vivo at 300 mg/kg/day: -33.7%
[1]; [8]
  change in vivo at 300 mg/kg/day: 22.7%
[1]; [9]
  change in vivo at 300 mg/kg/day: -31.3%
[1]; [10]
  change in vivo at 300 mg/kg/day: -22.5%
[1]; 300 mg/kg/day
  Hepatic index (percent variation vs hyperlipaemic controls): -5,5%
[2]; 50 mg/kg/day
  Cholesterol HDL (percent variation vs hyperlipaemic controls): +11,3%
  Total Cholesterol (percent variation vs hyperlipaemic controls): -23,3%
  Triglycerides (percent variation vs hyperlipaemic controls): -27,3%
  Cholesterol VLDL + LDL (percent variation vs hyperlipaemic controls): -28,1%
  Hepatic index (percent variation vs hyperlipaemic controls): +0,6%
[2]; 100 mg/kg/day
  Cholesterol HDL (percent variation vs hyperlipaemic controls): +21,0%
  Total Cholesterol (percent variation vs hyperlipaemic controls): -35,3%
  Triglycerides (percent variation vs hyperlipaemic controls): -35,1%
  Cholesterol VLDL + LDL (percent variation vs hyperlipaemic controls): -41,7%
  Hepatic index (percent variation vs hyperlipaemic controls): -1,9%
Catalase enzyme
  Catalase enzyme activity: 479,7 umoli/min/mg proteins
liver
  Hepatic index (Liver weight/body weight) × 100: 5,6

## CC(C)COC(=O)c1ccc(OCC(CSc2nc3c(N)ncnc3n2[C@@H]2O[C@H](CO)[C@@H](O)[C@H]2O)=NNC(N)=O)cc1 [Example 33]
[1]; [3]
  change in vivo at 100 mg/kg/day: -37.4%
[1]; [4]
  change in vivo at 100 mg/kg/day: 22.2%
[1]; [5]
  change in vivo at 100 mg/kg/day: -34.8%
[1]; [6]
  change in vivo at 100 mg/kg/day: -27.8%
[1]; [7]
  change in vivo at 300 mg/kg/day: -46.9%
[1]; [8]
  change in vivo at 300 mg/kg/day: 16.6%
[1]; [9]
  change in vivo at 300 mg/kg/day: -44.1%
[1]; [10]
  change in vivo at 300 mg/kg/day: -43%
[1]; 100 mg/kg/day
  Hepatic index (percent variation vs hyperlipaemic controls): -1,6%
[1]; 300 mg/kg/day
  Hepatic index (percent variation vs hyperlipaemic controls): -2,5%
[2]; 50 mg/kg/day
  Cholesterol HDL (percent variation vs hyperlipaemic controls): +15,6%
  Total Cholesterol (percent variation vs hyperlipaemic controls): -29,7%
  Triglycerides (percent variation vs hyperlipaemic controls): -20,5%
  Cholesterol VLDL + LDL (percent variation vs hyperlipaemic controls): -34,7%
  Hepatic index (percent variation vs hyperlipaemic controls): +2,2%
[2]; 100 mg/kg/day
  Cholesterol HDL (percent variation vs hyperlipaemic controls): +19,4%
  Total Cholesterol (percent variation vs hyperlipaemic controls): -33,8%
  Triglycerides (percent variation vs hyperlipaemic controls): -30,6%
  Cholesterol VLDL + LDL (percent variation vs hyperlipaemic controls): -39,7%
  Hepatic index (percent variation vs hyperlipaemic controls): +3,9%
Catalase enzyme
  Catalase enzyme activity: 378,5 umoli/min/mg proteins
liver
  Hepatic index (Liver weight/body weight) × 100: 5,3
